# According to patent publication US20040214721A1 (priority 2001, published 2004):
row,melting point,Structure (SMILES)
1,158 to 160 °C,CCC#CCOc1ccc([C@@H]2CCCC[C@H]2NC(=O)[C@@H](NS(=O)(=O)N(C)C)C(C)C)cc1OC
2,68 to 70 °C,COc1ccc(-c2ccccc2NC(=O)[C@@H](NS(C)(=O)=O)C(C)C)cc1OC
3,133 to 136 °C,CCC#CCOc1ccc([C@@H]2CCCC[C@H]2NC(=O)[C@@H](NS(=O)(=O)CC)C(C)C)cc1OC
4,95 to 98 °C,CCOc1ccc(-c2ccccc2NC(=O)[C@@H](NS(C)(=O)=O)C(C)C)cc1OC
5,149 to 151 °C,C#CCOc1ccc([C@@H]2CCCC[C@H]2NC(=O)[C@@H](NS(=O)(=O)CC)C(C)C)cc1OC
6,158 to 160 °C,COc1ccc(-c2ccccc2NC(=O)CNS(C)(=O)=O)cc1OC
7,166 to 168 °C,CCC#CCOc1ccc([C@@H]2CCCC[C@H]2NC(=O)[C@@H](NS(C)(=O)=O)C(C)C)cc1OC
8,183 to 185 °C,C#CCOc1ccc([C@@H]2CCCC[C@H]2NC(=O)[C@@H](NS(C)(=O)=O)C(C)C)cc1OC
